According to US12171813B2, “Methods of and compositions for reducing gene expression and/or activity” (Christiana Care Gene Editing Institute, Inc., priority 2021, dated 2024):

system: NRF2; experiment: cDNA PCR analysis of exon skipping / full-size transcript in NFE2L2; assay type: cell-based, Human; conditions: gRNA individually applied in the CRISPR reaction; NCI-H1703 clone 44-25 cells
Procedure: After CRISPR reactions, total RNA was prepared, and cDNA synthesized for PCR amplification of the target region from NRF2. PCR-amplified DNA was then analyzed by electrophoresis through a 1% agarose gel for 75 minutes at 80v. DNA was stained with SYBR Safe. Lanes 1 and 10: NEB 2 Log Ladder; Lane 2: Scrambled gRNA; Lane 3: NRF2 3-4 SureKill gRNA 3 alone; Lane 4: NRF2 3-4 SureKill gRNA 12 alone; Lane 5: NRF2 3-4 SureKill gRNA 14 alone; Lane 6: NRF2 3-4 SureKill gRNA 15 alone; Lane 7: NRF2 3-4 SureKill gRNA 21 alone; Lane 8: NRF2 3-4 SureKill gRNA 25 alone; Lane 9: NRF2 3-4 SureKill gRNA 26 alone. On the left side of the image are markers indicating DNA size in bp.
After CRISPR reactions, total RNA was prepared, and cDNA synthesized for PCR amplification of the target region from NRF2. PCR-amplified DNA was then analyzed by electrophoresis through a 1% agarose gel for 75 minutes at 80v. DNA was stained with SYBR Safe. Lane 1: NEB 2 Log Ladder; Lane 2: Scrambled gRNA; Lane 3: R34G gRNA alone; Lane 4: NRF2 3-4 SureKill gRNA 3+R34G gRNA; Lane 5: NRF2 3-4 SureKill gRNA+R34G gRNA; Lane 6: NRF2 3-4 SureKill gRNA 14+R34G gRNA. […]
Transfections were carried out using the Lonza Nuclefector 4d. […] RNPs were complexed at 250:50 pmol for 30 minutes prior to transfection, during which time cells were harvested and counted. […]

Substance	exon skipping (cDNA analysis)
NRF2 3-4 SureKill gRNA 26: NRF2 intron 3-4 guide RNA GCTTACTCATCCCCTGTTGG, SEQ ID NO:28 (listed as DNA, chemistry not given here)	some level of exon skipping

system: NFE2L2 gene; experiment: Screening of SureKill guide RNAs in the NFE2L2 gene for ability to induce indels; assay type: cell-based, Human; conditions: transfections of individual guide RNAs (spCas9 RNP); NCI-H1703 clone 44-25 cells; DECODR
Procedure: (§1) Human lung squamous cell carcinoma NCI-H1703 clone 44-25 cells were derived from NCI-H1703 cells (#CRL-5889) which were purchased from ATCC (Manassas, VA, USA). NCI-H1703 clone 44-25 cells contains R34G mutation (C 4 G) in NFE2L2 gene. H1703 clone 44-25 cells were cultured in ATCC formulation RPMI-1640 with 10% FBS. T75 flasks were used and cells were split 1:5 upon reaching 90% confluency. Human lung adenocarcinoma cells (Dist. Lot. No. LG0703-F948-PDC) were acquired from the National Institute of Health's National Cancer Institute's Patient-Derived Models Repository (PDMR). This PDMR cell line contains the L858R mutation (T 4 G) in the EGFR gene. The PDMR cells were maintained in Advanced DMEM/F12 media containing 10% FBS, 0.4 μg/mL hydrocortisone, 0.01 μg/mL EGF Recombinant Human Protein, 24 μg/mL adenine, and 2 mM L-Glutamine. T75s were used and cells were split 1:3 upon reaching 90% confluency. All cultures were maintained in cell culture incubators at 37° C. and 5% CO2.
(§2) Ribonucleoproteins (RNP) are complexed by incubating 250 pmol of purified synthetic gRNA (Synthego Corporation, Redwood City, CA) with 50 pmol of purified spCas9 (Synthego Corporation, Redwood City, CA) at room temperature in nuclease-free 1× TE buffer for 15 minutes.
(§3) Transfections were carried out using the Lonza Nuclefector 4d. Cultures in t75s at 90% confluence were split 1:2 24 hours prior to transfection. RNPs were complexed at 250:50 pmol for 30 minutes prior to transfection, during which time cells were harvested and counted. All reactions were 100 μL and contained 1 e6 cells. Lonza SF solution and Nucleofector program CM-130 were used in all transfections of the H1703 cell line. Lonza SE solution and Nucleofector program CA-137 were used in all transfections of the PDMR. After transfection, 500 μL of media that had been equilibrated to cell culture CO2 and temperature conditions was added to each 100 μL cuvettes. Cuvettes were then placed in the incubator. After 20 minutes, the entire content of each cuvette was seeded into 3 mL of media in a 6 well plate. After 72 hours, samples were dissociated using 200 μL Trypsin 0.25% for 5 minutes. 800 μL culture media was used to quench and split into 1.5 mL tubes each containing 500 μL of the sample. Tubes were spun at 300×g for 5 minutes. One of the tubes was placed in the −20° C. freezer and the other was resuspended in 500 μL of Trizol for RNA extraction and cDNA synthesis.
(§4) All sequencing was performed on the Applied Biosystems SeqStudio. The BigDye Terminator v3.1 Cycle Sequencing Kit was used to prepare samples for sequencing. Resulting sequences were analyzed with DECODR to determine indel rates (Bloh et al., CRISPR J. 4:120-31 (2021)).
In some cancers, human NRF2 contains a mutation, R34G, that creates a novel PAM site making it a targetable sequence by CRISPR. By combining the R34G-targeting CRISPR with another CRISPR of high efficiency in a downstream intronic region, exon skipping can be induced, resulting in a higher efficiency of functional knockout than the R34G targeting CRISPR alone. To find a suitable SureKill guide RNA (gRNA) to pair with the R34G targeting CRISPR, we selected the intron between exons 3 and 4 (FIG. 2). A series of gRNAs were created in this region and screened for their ability to induce indels, a measure of their activity (Table 2).
In Table 2, all sequences are listed from 5′ to 3′. Indel %, a measure of CRISPR activity, is based on transfections of individual guide RNAs. All guide RNAs, with the exception of R34G, were designed in the intron between exons 3 and 4.

Substance	indel %
NRF2 3-4 SureKill gRNA 29a: NRF2 intron 3-4 guide RNA GATTCCATTTTGTTTTGTAG, SEQ ID NO:30 (listed as DNA, chemistry not given here)	11.85%
NRF2 3-4 SureKill gRNA 10: NRF2 intron 3-4 guide RNA GGTTTTGTATTGTGTGAA, SEQ ID NO:15 (listed as DNA, chemistry not given here)	32.2%
NRF2 3-4 SureKill gRNA 32: NRF2 intron 3-4 guide RNA GGTTATGCTGTCCATGTTTC, SEQ ID NO:34 (listed as DNA, chemistry not given here)	47.8%
NRF2 3-4 SureKill gRNA 26: NRF2 intron 3-4 guide RNA GCTTACTCATCCCCTGTTGG, SEQ ID NO:28 (listed as DNA, chemistry not given here)	89.65%
NRF2 3-4 SureKill gRNA 29b: NRF2 intron 3-4 guide RNA GATTTATGAGTCTTCCACCAAC, SEQ ID NO:31 (listed as DNA, chemistry not given here)	11.8%
NRF2 3-4 SureKill gRNA 31: NRF2 intron 3-4 guide RNA GTTTGGTGAGTAAAGAGCCAGC, SEQ ID NO:33 (listed as DNA, chemistry not given here)	14.55%

system: EGFR gene; experiment: Screening of SureKill guide RNAs in the EGFR gene for ability to induce indels; assay type: cell-based; conditions: transfections of individual guide RNAs (spCas9 RNP); PDMR human lung adenocarcinoma cells with EGFR L858R; DECODR
Procedure: as §1, §2, §3, §4
Human EGFR is a frequently mutated gene that is associated with cancers. One of the most common mutations is L858R which results in the creation of a novel PAM site, making it a targetable sequence by CRISPR. Like the R34G mutation, the CRISPR designed to target the L858R mutation is not highly efficient on its own. By combining the L858R-targeting CRISPR with another CRISPR of high efficiency in a downstream intronic region, exon skipping can be induced, resulting in a higher efficiency of functional knockout than the L858R targeting CRISPR alone. To find a suitable gRNA to pair with the L858R targeting CRISPR, we selected the intron between exons 21 and 22 (FIG. 6). A series of gRNAs were created in this region and screened for their ability to induce indels, a measure of their activity using DECODR (Bloh et al., CRISPR J. 4:120-31 (2021)) (Table 3).
In Table 3, all sequences are listed from 5′ to 3′. Indel percent, a measure of CRISPR activity, is based on transfections of individual guide RNAs. All guide RNAs, with the exception of L858R, were designed in the intron between exons 21 and 22.

Substance	indel %
EGFR 21-22 SureKill gRNA 2: EGFR intron 21-22 guide RNA GTATTGTTTAACACATGCAG, SEQ ID NO:10 (listed as DNA, chemistry not given here)	2%
EGFR 21-22 SureKill gRNA 10A: EGFR intron 21-22 guide RNA GTTTAACACATGCAGGGG, SEQ ID NO:35 (listed as DNA, chemistry not given here)	0%
EGFR 21-22 SureKill gRNA 29: EGFR intron 21-22 guide RNA GTTAAACAATACAGCTAGT, SEQ ID NO:52 (listed as DNA, chemistry not given here)	100%
EGFR 21-22 SureKill gRNA 10B: EGFR intron 21-22 guide RNA GTATTGTTTAACACATGCAGGGG, SEQ ID NO:36 (listed as DNA, chemistry not given here)	0%
EGFR 21-22 SureKill gRNA 23: EGFR intron 21-22 guide RNA GCATTTTCCTGACACCAGGGACC, SEQ ID NO:47 (listed as DNA, chemistry not given here)	96.15%
